Assay results reported in patent EP0347843A1, “Vitamine E composition improved in absorption” (Eisai Co., Ltd., priority 1988, dated 1989).
Values after ≈ are worked out from the molar mass of the structure shown. Like-named read-outs stand apart in the source and are kept apart here.

Test: physchem
Experimental: It was here determined how much influence a mixture of oleic acid and lecithin would put on the solubility of d-alpha-tocopherol. It was determined with changing ratios of the oleic acid to the lecithine how to dissolve d-alpha-tocopherol in 20 mM solution of bile acid.

Cc1c(C)c2c(c(C)c1O)CC[C@@](C)(CCC[C@H](C)CCC[C@H](C)CCCC(C)C)O2 [d-alpha-tocopherol]
solubility: high solubility | solubility (20 mm bile acid solution): 2000 µg/mL (≈ 4.64 mM)
